In the test the target is T1, SIRT1 (Homo sapiens, UniProt Q96EB6).
T1 sequence (Q96EB6 1-747): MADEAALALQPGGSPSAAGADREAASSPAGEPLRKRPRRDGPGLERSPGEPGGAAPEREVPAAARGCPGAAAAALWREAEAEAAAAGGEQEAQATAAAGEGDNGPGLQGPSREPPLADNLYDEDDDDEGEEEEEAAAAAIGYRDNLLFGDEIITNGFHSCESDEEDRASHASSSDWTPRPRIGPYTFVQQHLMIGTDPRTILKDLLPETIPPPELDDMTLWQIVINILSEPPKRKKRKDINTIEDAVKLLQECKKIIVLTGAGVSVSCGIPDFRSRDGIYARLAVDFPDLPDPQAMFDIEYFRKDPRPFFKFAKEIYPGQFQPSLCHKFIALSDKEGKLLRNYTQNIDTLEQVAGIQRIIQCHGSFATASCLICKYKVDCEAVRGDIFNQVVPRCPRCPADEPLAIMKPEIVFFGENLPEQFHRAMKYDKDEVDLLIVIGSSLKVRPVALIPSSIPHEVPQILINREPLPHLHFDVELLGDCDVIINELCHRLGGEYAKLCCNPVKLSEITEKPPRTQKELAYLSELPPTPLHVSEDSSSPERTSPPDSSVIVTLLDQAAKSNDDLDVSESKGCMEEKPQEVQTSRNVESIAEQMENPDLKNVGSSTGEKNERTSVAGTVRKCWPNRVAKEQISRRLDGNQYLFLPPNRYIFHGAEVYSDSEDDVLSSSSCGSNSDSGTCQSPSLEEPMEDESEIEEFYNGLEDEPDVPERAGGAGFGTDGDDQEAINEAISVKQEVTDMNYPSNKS
Kind of test: Mass spectrometry based SIRT1 deacetylase activation assay (acetylated p53-derived peptide substrate). Type of test: biochemical.

The mark [1] stands for this setting: 0.5 μM peptide substrate, 120 μM βNAD+, 10 nM SIRT1, 25 minutes at 25° C.
[2] abbreviates: 0.5 μM peptide substrate, 120 μM βNAD+, 10 nM SIRT1, 25 min at 25° C.
The mark [3] stands for this setting: 0.5 μM peptide substrate, 120 μM βNAD+, 10 nM SIRT1, 25 min at 25° C., read-out: EC1.5.

Read-outs that look alike come from different tables or passages of the source.

Turning to `O=C(Nc1cccc(OC[C@@H](O)CO)c1)c1cccc2[nH]c(-c3ccccc3C(F)(F)F)nc12` [Compound 725, (S)-N-(3-(2,3-dihydroxypropoxy)phenyl)-2-(2-(trifluoromethyl)phenyl)-1H-benzo[d]imidazole-4-carboxamide], under setting [1], the EC1.5 result was “A (EC1.5<1.0 uM)” and the “Fold Act. (percent maximum fold activation)” value is recorded as “A (Fold activation >200%)”.

On to `Cc1nc(NC(=O)c2cccc3[nH]c(-c4cccc(C(F)(F)F)c4)nc23)sc1C` [Compound 274], for which the EC1.5 result is listed as “A (EC1.5<1.0 uM)” and the “Fold Act. (percent maximum fold activation)” value is given as “A (Fold activation >200%)”.

Turning to `O=C(Nc1nccs1)c1cccc2[nH]c(-c3ccccc3N3CCOCC3)nc12` [Compound 256], the EC1.5 entry is recorded as “B (EC1.5 1-25 uM)” and the “Fold Act. (percent maximum fold activation)” value is “A (Fold activation >200%)”.

Take `O=C(Nc1cccnc1)c1cccc2[nH]c(-c3ccnc(N4CCCC4)c3)nc12` [Compound 568]: the “Fold Act. (percent maximum fold activation)” value under setting [2] was “B (Fold Activation <200%)”. Besides, the EC1.5 under setting [3] is more than 25000 nM.

`O=C(Nc1ccccn1)c1cccc2[nH]c(-c3cc(N4CC[C@@H](F)C4)ccc3C(F)(F)F)nc12` [Compound 668]: under setting [1], the EC1.5 result is listed as “A (EC1.5<1.0 uM)” and the “Fold Act. (percent maximum fold activation)” value is recorded as “B (Fold Activation <200%)”.

On to `O=C(Nc1nccs1)c1cc(F)cc2nc(-c3ccccc3C(F)F)[nH]c12` [Compound 832], for which, under setting [1], the EC1.5 entry is “A (EC1.5<1.0 uM)” and the “Fold Act. (percent maximum fold activation)” value is “A (Fold activation >200%)”.

Take `O=C(Nc1nccs1)c1cc(F)cc2[nH]c(-c3ccc(OC[C@@H](O)CO)cc3C(F)F)nc12` [Compound 831]: under setting [1], the EC1.5 result is on record as “A (EC1.5<1.0 uM)” and the “Fold Act. (percent maximum fold activation)” value is on record as “A (Fold activation >200%)”.

For `O=C(NC1CCNCC1)c1cccc2[nH]c(-c3ccccc3C(F)(F)F)nc12` [Compound 431], under setting [2], the “Fold Act. (percent maximum fold activation)” value is recorded as “B (Fold Activation <200%)”. Besides, the EC1.5 under setting [3] is more than 25000 nM.

For `Cc1cc(C)nc(NC(=O)c2cccc3[nH]c(-c4ccc(Cl)cc4C(F)(F)F)nc23)c1` [Compound 394], the EC1.5 result is recorded as “A (EC1.5<1.0 uM)” and the “Fold Act. (percent maximum fold activation)” value is “A (Fold activation >200%)”.

Take `O=C(Nc1nccs1)c1cccc2[nH]c(-c3cc(F)ccc3C(F)F)nc12` [Compound 511]: under setting [2], the “Fold Act. (percent maximum fold activation)” value is “A (Fold activation >200%)”. Also, the EC1.5 under setting [3] lay in the range of 1000 to 25000 nM.

Take `O=C(Nc1nccs1)c1cccc2[nH]c(-c3cccnc3N3CCOCC3)nc12` [Compound 250, 2-(2-morpholinopyridin-3-yl)-N-(thiazol-2-yl)-1H-benzo[d]imidazole-4-carboxamide]: the EC1.5 entry is reported as “B (EC1.5 1-25 uM)” and the “Fold Act. (percent maximum fold activation)” value is “A (Fold activation >200%)”.

As to `Cc1cc(NC(=O)c2cccc3[nH]c(-c4ccnn4-c4ccccc4)nc23)n(C)n1` [Compound 423], the “Fold Act. (percent maximum fold activation)” value under setting [2] was “A (Fold activation >200%)”. In addition, the EC1.5 under setting [3] lay in the range of 1000 to 25000 nM.

In the case of `O=C(Nc1nccs1)c1cccc2[nH]c(-c3ccccc3OCCN3CC[C@H](F)C3)nc12` [Compound 509], under setting [2], the “Fold Act. (percent maximum fold activation)” value is “B (Fold Activation <200%)”. Moreover, the EC1.5 under setting [3] was less than 1000 nM.

`Cc1cnc(NC(=O)c2cccc3[nH]c(-c4ccc(OC[C@@H](O)CO)cc4C(F)F)nc23)s1` [Compound 595]: the “Fold Act. (percent maximum fold activation)” value under setting [2] is given as “A (Fold activation >200%)”. Under setting [3], the EC1.5 was less than 1000 nM.

In the case of `Cc1cnc(NC(=O)c2cccc3nc(-c4ccc(N5CCCC5)cc4C(F)F)[nH]c23)s1` [Compound 765], under setting [1], the EC1.5 result is on record as “A (EC1.5<1.0 uM)” and the “Fold Act. (percent maximum fold activation)” value is listed as “A (Fold activation >200%)”.

In the case of `O=C(Nc1cccnc1)c1cc(F)cc2[nH]c(-c3ccc(OC[C@@H](O)CO)cc3C(F)F)nc12` [Compound 841], under setting [1], the EC1.5 entry is on record as “A (EC1.5<1.0 uM)” and the “Fold Act. (percent maximum fold activation)” value is reported as “A (Fold activation >200%)”.

As to `O=C(Nc1nccs1)c1cccc2[nH]c(-c3cc(N4CC[C@@H](F)C4)ccc3C(F)(F)F)nc12` [Compound 667], under setting [1], the EC1.5 result is listed as “B (EC1.5 1-25 uM)” and the “Fold Act. (percent maximum fold activation)” value is given as “A (Fold activation >200%)”.

For the compound `O=C(Nc1cccc(CN2CCOCC2)n1)c1cccc2[nH]c(-c3ccc(Cl)cc3C(F)(F)F)nc12` [Compound 675], under setting [1], the EC1.5 entry is reported as “A (EC1.5<1.0 uM)” and the “Fold Act. (percent maximum fold activation)” value is reported as “A (Fold activation >200%)”.

Take `O=C(Nc1cccnn1)c1cc(N2CCOCC2)cc2[nH]c(-c3ccc(F)cc3C(F)(F)F)nc12` [Compound 692]: under setting [1], the EC1.5 result is listed as “A (EC1.5<1.0 uM)” and the “Fold Act. (percent maximum fold activation)” value is given as “A (Fold activation >200%)”.

Regarding `Cc1cc(NC(=O)c2cccc3[nH]c(-c4ccccc4C(F)(F)F)nc23)no1` [Compound 481], under setting [2], the “Fold Act. (percent maximum fold activation)” value is reported as “A (Fold activation >200%)”. The EC1.5 under setting [3] was less than 1000 nM.

`O=C(Nc1ccccn1)c1cccc2[nH]c(-c3cccc(-c4nnn[nH]4)c3)nc12` [Compound 361]: the EC1.5 entry is given as “A (EC1.5<1.0 uM)” and the “Fold Act. (percent maximum fold activation)” value is “A (Fold activation >200%)”.

`O=C(Nc1ccccn1)c1cncc2[nH]c(-c3ccc(OC[C@@H](O)CO)cc3C(F)F)nc12` [Compound 773]: under setting [1], the EC1.5 result is listed as “A (EC1.5<1.0 uM)” and the “Fold Act. (percent maximum fold activation)” value is on record as “A (Fold activation >200%)”.

For the compound `O=C(Nc1ncc(F)s1)c1cccc2[nH]c(-c3ccc(Cl)cc3C(F)(F)F)nc12` [Compound 321], the EC1.5 entry was “A (EC1.5<1.0 uM)” and the “Fold Act. (percent maximum fold activation)” value is given as “A (Fold activation >200%)”.

For `O=C(Nc1ccccc1OCC(O)CO)c1cccc2[nH]c(-c3ccc(Cl)cc3C(F)(F)F)nc12` (centres unmarked) [Compound 726], under setting [1], the EC1.5 result is given as “B (EC1.5 1-25 uM)” and the “Fold Act. (percent maximum fold activation)” value was “A (Fold activation >200%)”.

Consider `O=C(Nc1cccc(OC2CCNC2)c1)c1cccc2[nH]c(-c3ccc(F)cc3C(F)(F)F)nc12` (centres unmarked) [Compound 660], for which, under setting [1], the EC1.5 result is “A (EC1.5<1.0 uM)” and the “Fold Act. (percent maximum fold activation)” value is “A (Fold activation >200%)”.

Consider `Cc1cc(NC(=O)c2cccc3[nH]c(-c4cccc(C(F)(F)F)c4)nc23)n(C)n1` [Compound 278], for which the EC1.5 result was “B (EC1.5 1-25 uM)” and the “Fold Act. (percent maximum fold activation)” value is given as “A (Fold activation >200%)”.

Take `O=C(Nc1nccs1)c1cccc2[nH]c(-c3ccc(OC[C@@H](O)CO)cc3C(F)F)nc12` [Compound 594]: the “Fold Act. (percent maximum fold activation)” value under setting [2] is reported as “A (Fold activation >200%)”. The EC1.5 under setting [3] is less than 1000 nM.

As for `O=C(Nc1nccs1)c1cccc2[nH]c(-c3ccc(Cl)cc3C(F)(F)F)nc12` [Compound 290], the EC1.5 entry is reported as “A (EC1.5<1.0 uM)” and the “Fold Act. (percent maximum fold activation)” value is given as “A (Fold activation >200%)”.

For the compound `O=C(Nc1cccc2[nH]c(-c3cccc(N4CCOCC4)c3)nc12)c1cnccn1` [Compound 388], the EC1.5 entry is recorded as “B (EC1.5 1-25 uM)” and the “Fold Act. (percent maximum fold activation)” value is recorded as “A (Fold activation >200%)”.

Take `O=C(Nc1ccccn1)c1cncc2[nH]c(-c3ccc(OC[C@H](O)CO)cc3C(F)(F)F)nc12` [Compound 763]: under setting [1], the EC1.5 result is on record as “A (EC1.5<1.0 uM)” and the “Fold Act. (percent maximum fold activation)” value was “A (Fold activation >200%)”.

As to `O=C(Nc1nccs1)c1cccc2[nH]c(-c3nccs3)nc12` [Compound 238], the EC1.5 result is “B (EC1.5 1-25 uM)” and the “Fold Act. (percent maximum fold activation)” value is “B (Fold Activation <200%)”.

On to `C[C@@H]1CN(c2cccc(-c3nc4c(C(=O)Nc5ccccn5)cccc4[nH]3)c2)C[C@H](C)O1` [Compound 577], for which the “Fold Act. (percent maximum fold activation)” value under setting [2] is recorded as “A (Fold activation >200%)”. Besides, the EC1.5 under setting [3] was less than 1000 nM.

`CC(C)(C)c1ccc(OCCN2CCOCC2)c(-c2nc3c(C(=O)Nc4nccs4)cccc3[nH]2)c1` [Compound 547]: under setting [2], the “Fold Act. (percent maximum fold activation)” value is “B (Fold Activation <200%)”. Further, the EC1.5 under setting [3] was 1000 to 25000 nM.

As for `CS(=O)(=O)c1ccc(F)cc1-c1nc2c(C(=O)Nc3nccs3)cccc2[nH]1` [Compound 600], under setting [1], the EC1.5 entry is “B (EC1.5 1-25 uM)” and the “Fold Act. (percent maximum fold activation)” value was “A (Fold activation >200%)”.

`O=C(Nc1ccc(OC[C@H](O)CO)cc1)c1cccc2[nH]c(-c3cccc(N4CCCC4)c3)nc12` [Compound 778]: under setting [1], the EC1.5 entry is “A (EC1.5<1.0 uM)” and the “Fold Act. (percent maximum fold activation)” value is listed as “A (Fold activation >200%)”.

For the compound `CC1(C)Cc2cc(-c3nc4c(C(=O)Nc5cccnc5)cccc4[nH]3)ccc2O1` [Compound 499], the “Fold Act. (percent maximum fold activation)” value under setting [2] is reported as “A (Fold activation >200%)”. Moreover, the EC1.5 under setting [3] was in the range of 1000 to 25000 nM.

For `O=C(Nc1ccccc1OCC(O)CO)c1cccc2[nH]c(-c3cc(F)ccc3C(F)(F)F)nc12` (centres unmarked) [Compound 730], under setting [1], the EC1.5 entry is on record as “B (EC1.5 1-25 uM)” and the “Fold Act. (percent maximum fold activation)” value is “A (Fold activation >200%)”.
